Measurements: patent EP0552223B1, “USE OF BENZENE DERIVATIVES AS CHARGE TRANSFER MEDIATORS” (NOVO NORDISK A/S, priority 1990, dated 1992)
Structures can show the parent of a compound that is named as a salt.

Tests used:
[1] = target: T1, Glucose oxidase (GOD) (E.C.1.1.3.4.) (Aspergillus niger, UniProt P13006); assay: Cyclic voltammetry of GOD-graphite/paraffin pasta electrode containing the mediator; assay type: biochemical; conditions: Ag/AgCl ref.
Experimental: • 1) A paste containing GOD-immobilized graphite, paraffin and mediator is prepared. If the mediator has a big solubility in paraffin then 10 mg of mediator is used per ml of paraffin. If the mediator has a little solubility in paraffin then 50 mg of crystals are added per ml of paraffin in order to obtain a homogeneous mixture before graphite is added. The paste obtained is filled into sticks. • 2) The activity of the paste is determined in a cyclic voltametri equipment where the current is measured as a function of the potential (CV sweep). Five concentrations of glucose are measured, i.e., 0, 5, 10, 15 and 20 mM. Based upon the results obtained, the following is evaluated: • a) whether the mediator can be oxidized and reduced by the graphite electrode, • b) whether the mediator can be reduced of GOD, • c) the optimal potential for the electorde to be used, • d) whether a lineary response as a function of the concentration of glucose can be obtained using the concentration of mediator in question, • e) whether the concentration of the mediator can be optimized. • 3) The response as a function of time at the optimal potential is to be measured. The time interval within which the response represents a stable response for the concentration of glucose is to be evaluated. • 4) The stability of the mediator in the paste question is determined.
(§1) Glucose oxidase (GOD) (E.C.1.1.3.4.) was immobilized on graphite particles by the following procedure: 10 g of graphite was oxidized in air at 100°C for 24 hours. The surface oxidized graphite particles were activated with 500 mg of 1-cyclohexyl-3-(2-morpholinoethyl)carbodiimide metho-p-toluenesulfonate in 100 ml of 0.1 M acetate buffer (pH 4.76) for 2 hours, then washed with distilled water until an approximately neutral pH value and dried. The activated graphite was mixed with 30 ml of 0.01 phosphate buffer (pH 7.3) containing 80,000 IU GOD and 4% glutaraldehyde for 16 hours at 4°C, dried and sieved through a 48 mesh to obtain uniform particles.
(§2) 1 g of paraffin oil containing 5% Methylene green (4-nitro-3,7-bis(dimethylamino)phenothiazine) was mixed carefully with 2 g of GOD modified graphite to a uniform pasta.
(§3) The pasta was filled into a plastic rod in which it was possible to cut a thin cross-sectional slice to introduce a new well-defined electrode area. Before each measurement, the electrode surface was renewed. The working electrode area used was 3 mm^2.
In the study of the working electrode, an Ag auxiliary electrode and an Ag/AgCl reference electrode was used. In a cyclic voltammogram, a catalytic current from the reoxidation of the mediator was observed beginning at -50 mV and being stable between 50 and 400 mV. The current was proportional to the concentration of glucose used.
(§4) Data in the table are obtained using the same procedure as in Example 1.

[2] = target: T1, Glucose oxidase (GOD) (E.C.1.1.3.4.); assay: Chronoamperometry of GOD-graphite/paraffin pasta electrode containing the mediator (glucose measurement); assay type: biochemical; conditions: for Working potential: Ag/AgCl ref.; for SD% of 100 measurement / Signal to noice ration: at 7mM glucose
Experimental: as §1, §2, §3
Chronoamperometry was preformed at 100 mV using the integrated current from 30 to 60 seconds after applying the potential. A linearity up to 40 mM glucose was obtained. The current was 500 nA/(sec*mM). The signal was not affected by the oxygen concentration in the solution. Reference pasta without Methylene green was not affected by different glucose concentrations.
as §4

[3] = Redox potential of the mediator at GC electrode; assay type: physicochemical; conditions: Ag/AgCl ref.; in mV (unit assumed)
Description: as §4

[4] = Stability test of pasta rods with selected mediators stored at different temperatures; assay type: physicochemical; design: unit not given here
Experimental: The stability of a paste with a certain mediator can be determined using the following method:
The mediator is dissolved or mixed with paraffin and, thereafter, the enzyme coupled to graphite is added. The mixture is homogenized giving a paste. This paste is filled into electrode holders of plast giving so-called sticks. These sticks are tested using 0 and 10 mM glucose standards in order to characterize the activity of these sticks in relation to glucose. Thereafter, the paste containing sticks are stored at a constant temperature, for example, 4, 20, 35 and 54°C. After a certain period of time, for example 1 month, the sticks are tested using the 0 and 10 mM glucose standards and the activities measured are compared with the activity measured at originally.
Data are obtained using the same basis procedure as in Example 1. Rods with selected mediators were stored at different temperature to accelerate processes which could give new analytical performance.

[5] = target: T2, Lactate oxidase (Aerococcus viridans, UniProt Q44467); assay: Lactate assay with enzyme-graphite pasta electrode and mediator; assay type: biochemical; conditions: lactate system; at 100 mV vs. Ag/AgCl reference electrode
T2 construct: purchased Sigma
T2 sequence (Q44467 1-374): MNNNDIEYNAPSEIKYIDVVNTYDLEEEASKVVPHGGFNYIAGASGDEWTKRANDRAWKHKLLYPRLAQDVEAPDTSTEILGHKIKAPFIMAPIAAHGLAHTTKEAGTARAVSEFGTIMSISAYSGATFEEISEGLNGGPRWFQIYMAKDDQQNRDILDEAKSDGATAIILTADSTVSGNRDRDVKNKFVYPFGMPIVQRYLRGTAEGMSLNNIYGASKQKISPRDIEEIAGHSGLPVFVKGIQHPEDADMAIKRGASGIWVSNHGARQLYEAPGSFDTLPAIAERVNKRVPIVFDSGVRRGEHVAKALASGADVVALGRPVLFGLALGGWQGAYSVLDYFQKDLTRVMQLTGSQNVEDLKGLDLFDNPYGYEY
Experimental: Lactate oxidase and alcohol oxidase were obtained from Sigma and the enzymes were used as in Example 1. The same mediators as in Example 4 were tested in the electrodes. The best response for the lactate system was obtained with Methylene green, which gave a current density at 4 µA/cm^2/mM at 100 mV vs. Ag/AgCl reference electrode. For the alcohol system ethanol was used as enzyme substrate. The current density was much lower than for the lactate system and none of the tested mediators worked optimally. Other mediators sucessfully tested with glucose oxidase are expected to give higher current densitites due to differences in hydrophobicity and hydrophillicity.

T1 sequence (P13006 17-605, species assumed): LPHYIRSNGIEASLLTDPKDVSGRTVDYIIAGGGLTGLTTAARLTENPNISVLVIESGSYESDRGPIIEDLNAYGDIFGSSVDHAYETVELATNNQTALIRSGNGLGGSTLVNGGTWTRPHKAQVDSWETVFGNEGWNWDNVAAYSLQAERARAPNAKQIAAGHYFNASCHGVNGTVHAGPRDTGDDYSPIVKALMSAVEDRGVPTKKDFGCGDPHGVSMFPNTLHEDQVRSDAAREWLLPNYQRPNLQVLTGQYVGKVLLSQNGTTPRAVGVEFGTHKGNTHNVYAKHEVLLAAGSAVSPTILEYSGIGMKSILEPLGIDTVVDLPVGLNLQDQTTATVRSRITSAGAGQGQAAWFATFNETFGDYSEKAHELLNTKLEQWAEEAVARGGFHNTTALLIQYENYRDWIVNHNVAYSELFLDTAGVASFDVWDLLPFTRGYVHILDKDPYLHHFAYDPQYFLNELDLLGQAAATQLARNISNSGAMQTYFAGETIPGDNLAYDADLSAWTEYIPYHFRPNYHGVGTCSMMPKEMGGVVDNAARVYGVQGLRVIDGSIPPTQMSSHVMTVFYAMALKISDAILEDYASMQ

SMILES	Catalytic interval beginning at [1]	Working potential [2]	SD% of 100 measurement [2]	Signal to noice ration [2]	Linearity ([2]; glucose)	Redoxpotential at GCElectrode [3]	activity of rod in stability test ([4]; 4°C, listed as a, Time 0)	activity of rod in stability test ([4]; 4°C, listed as a, Time 72)	activity of rod in stability test ([4]; 4°C, listed as b, Time 0)	activity of rod in stability test ([4]; 4°C, listed as b, Time 72)	activity of rod in stability test ([4]; 20°C, listed as a, Time 0)	activity of rod in stability test ([4]; 20°C, listed as a, Time 72)	activity of rod in stability test ([4]; 20°C, listed as b, Time 0)	activity of rod in stability test ([4]; 20°C, listed as b, Time 72)	activity of rod in stability test ([4]; 35°C, listed as a, Time 0)	activity of rod in stability test ([4]; 35°C, listed as a, Time 72)	activity of rod in stability test ([4]; 35°C, listed as b, Time 0)	activity of rod in stability test ([4]; 35°C, listed as b, Time 72)	activity of rod in stability test ([4]; 54°C, listed as a, Time 0)	activity of rod in stability test ([4]; 54°C, listed as b, Time 0)	further results
c1cc(N2CCOCC2)ccc1N1CCOCC1 [BMP, 1,4-dimorpholinobenzene]	50 mV	200	6.5%	5.6	20 mM	246	20.2	21.2	21.3	19.3	18.5	21.4	20.5	23.3	20.0	18.0	16.7	20.3	18.4	20.5	activity of rod in stability test ([4]; 54°C, listed as a, Time 72): 15.0; activity of rod in stability test ([4]; 54°C, listed as b, Time 72): 14.6
c1cc(N2CCCCC2)ccc1N1CCCCC1 [BPP, 1,4-dipiperidinobenzene]	0 mV	150	3.5%	4.7	20 mM	141	12.3		11.1		10.0		10.5		9.1		10.6		11.1	10.3	activity of rod in stability test ([4]; 4°C, listed as a, Time 78): 12.4; activity of rod in stability test ([4]; 4°C, listed as b, Time 78): 13.7; activity of rod in stability test ([4]; 20°C, listed as a, Time 78): 11.0; activity of rod in stability test ([4]; 20°C, listed as b, Time 78): 11.1; activity of rod in stability test ([4]; 35°C, listed as a, Time 78): 8.7; activity of rod in stability test ([4]; 35°C, listed as b, Time 78): 10.4; activity of rod in stability test ([4]; 54°C, listed as a, Time 78): 6.7; activity of rod in stability test ([4]; 54°C, listed as b, Time 78): 5.6
C[N+](C)=c1ccc2nc3c(ccc4ccccc43)oc-2c1 [MB, 7-dimethylamino-1,2-benzophenoxazinium salts]	-50 mV	100	6.5%	4.8	40 mM	-175															
CN(C)c1ccc(N2CCOCC2)cc1 [MDMP, 1-dimethylamino-4-morpholinobenzene]	-20 mV	100	4.5%	8.3	20 mM	124	17.2	16.9	16.2	18.1	16.4	17.4	16.0	15.4	15.4	15.7	13.4	14.5	17.4	14.4	activity of rod in stability test ([4]; 54°C, listed as a, Time 72): 6.9; activity of rod in stability test ([4]; 54°C, listed as b, Time 72): 8.5
CN(C)c1ccc2c(c1)Sc1c(ccc(N(C)C)c1[N+](=O)[O-])N2 [MG, 4-nitro-3,7-bis(dimethylamino)phenothiazine]	-50 mV	100	7.5%	22.5	40 mM	-149	13.7		10.0		14.9		12.5		12.1		13.3		15.8	12.8	signal affected by the oxygen concentration in the solution ([2]; at 100 mV): not affected; current ([2]; at 100 mV, integrated current from 30 to 60 seconds after applying the potential): 500 nA/(sec*mM); Linearity in mM ([2]; glucose, listed as Methylene green): up to 40 mM; activity of rod in stability test ([4]; 4°C, listed as a, Time 75): 13.2; activity of rod in stability test ([4]; 4°C, listed as b, Time 75): 14.3; activity of rod in stability test ([4]; 20°C, listed as a, Time 75): 14.3; activity of rod in stability test ([4]; 20°C, listed as b, Time 75): 15.4; activity of rod in stability test ([4]; 35°C, listed as a, Time 75): 11.2; activity of rod in stability test ([4]; 35°C, listed as b, Time 75): 12.2; activity of rod in stability test ([4]; 54°C, listed as a, Time 75): 10.4; activity of rod in stability test ([4]; 54°C, listed as b, Time 75): 12.6; current density [5]: 4 µA/cm^2/mM
c1cc(N2CCOCC2)ccc1N1CCCCC1 [MPP, 1-morpholino-4-piperidinobenzene]	20 mV	100	4.0%	10	20 mM	166	11.7		9.2		10.0		7.2		7.0		9.0		12.5	11.3	activity of rod in stability test ([4]; 4°C, listed as a, Time 70): 8.8; activity of rod in stability test ([4]; 4°C, listed as b, Time 70): 10.5; activity of rod in stability test ([4]; 20°C, listed as a, Time 70): 11.9; activity of rod in stability test ([4]; 20°C, listed as b, Time 70): 9.3; activity of rod in stability test ([4]; 35°C, listed as a, Time 70): 9.0; activity of rod in stability test ([4]; 35°C, listed as b, Time 70): 9.5; activity of rod in stability test ([4]; 54°C, listed as a, Time 70): 4.1; activity of rod in stability test ([4]; 54°C, listed as b, Time 70): 4.7
